Assays:
AT2 = biological target: T1, AT2 (Homo sapiens, UniProt P50052); test: Profiling panel, radioligand binding AT2; details: 10 μM
T1 sequence (P50052 1-363): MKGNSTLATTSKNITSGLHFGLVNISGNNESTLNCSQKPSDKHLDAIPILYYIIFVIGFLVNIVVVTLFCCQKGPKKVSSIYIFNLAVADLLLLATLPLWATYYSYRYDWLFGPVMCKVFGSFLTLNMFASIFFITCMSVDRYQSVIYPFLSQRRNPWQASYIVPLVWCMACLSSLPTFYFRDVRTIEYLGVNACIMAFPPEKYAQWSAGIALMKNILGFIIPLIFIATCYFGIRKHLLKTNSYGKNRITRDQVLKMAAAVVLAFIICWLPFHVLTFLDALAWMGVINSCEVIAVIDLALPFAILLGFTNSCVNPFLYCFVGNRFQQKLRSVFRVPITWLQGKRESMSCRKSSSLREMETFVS
Experimental: (§1) All assays were performed using recombinant human receptors and enzymes, and included the appropriate controls for assay validation. Enzymatic and binding assays, except for muscarinic binding, were performed by CEREP in vitro pharmacology profiling services. […] For stimulation of C3a, C5a, and ChemR23 receptors in InsP assays the following agonists were used: human recombinant C3a (C3a receptor), human recombinant C5a (C5a receptor), and the nonapeptide Chemerin (ChemR23).

ChemR23 = biological target: T2, ChemR23 (Homo sapiens, UniProt Q99788); test: Profiling panel, functional InsP ChemR23; type: cell-based; details: 10 μM
T2 sequence (Q99788 1-373): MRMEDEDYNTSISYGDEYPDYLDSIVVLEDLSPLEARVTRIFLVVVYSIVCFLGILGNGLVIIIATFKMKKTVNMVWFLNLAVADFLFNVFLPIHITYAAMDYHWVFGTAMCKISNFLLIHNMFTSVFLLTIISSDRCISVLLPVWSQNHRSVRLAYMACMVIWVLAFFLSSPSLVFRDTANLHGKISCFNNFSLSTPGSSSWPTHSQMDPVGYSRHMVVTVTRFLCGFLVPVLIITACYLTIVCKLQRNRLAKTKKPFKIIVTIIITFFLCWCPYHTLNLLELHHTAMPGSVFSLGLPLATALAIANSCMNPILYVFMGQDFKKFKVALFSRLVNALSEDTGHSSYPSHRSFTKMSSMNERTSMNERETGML

CXCR2 = biological target: T3, CXCR2 (Homo sapiens, UniProt P25025); test: Profiling panel, radioligand binding CXCR2; details: 10 μM
T3 sequence (P25025 1-360): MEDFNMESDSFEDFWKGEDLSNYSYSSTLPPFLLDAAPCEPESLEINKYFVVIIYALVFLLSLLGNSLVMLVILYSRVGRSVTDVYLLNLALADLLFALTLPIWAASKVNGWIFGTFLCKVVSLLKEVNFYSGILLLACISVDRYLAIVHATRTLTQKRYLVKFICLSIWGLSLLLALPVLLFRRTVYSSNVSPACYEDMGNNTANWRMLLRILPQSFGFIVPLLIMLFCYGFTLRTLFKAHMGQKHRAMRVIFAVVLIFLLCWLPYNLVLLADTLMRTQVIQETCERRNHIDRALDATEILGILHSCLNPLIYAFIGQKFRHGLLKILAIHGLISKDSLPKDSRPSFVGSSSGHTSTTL
Experimental: as §1

CysLT1 = biological target: T4, CysLT1 (Homo sapiens, UniProt Q9Y271); test: Profiling panel, radioligand binding CysLT1; details: 10 μM
T4 sequence (Q9Y271 1-337): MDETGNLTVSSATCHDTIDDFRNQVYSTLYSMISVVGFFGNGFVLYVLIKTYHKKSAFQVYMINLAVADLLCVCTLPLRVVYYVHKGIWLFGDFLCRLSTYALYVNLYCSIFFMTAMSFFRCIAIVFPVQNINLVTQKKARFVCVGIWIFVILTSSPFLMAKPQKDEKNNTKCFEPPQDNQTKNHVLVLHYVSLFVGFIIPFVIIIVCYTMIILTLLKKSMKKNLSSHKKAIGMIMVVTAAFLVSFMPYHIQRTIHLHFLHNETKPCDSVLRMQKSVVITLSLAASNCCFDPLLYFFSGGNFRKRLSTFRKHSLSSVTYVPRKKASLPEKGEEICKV
Experimental: as §1

Glucocorticoid = biological target: T5, Glucocorticoid (Homo sapiens, UniProt P04150); test: Profiling panel, radioligand binding Glucocorticoid; details: 10 μM
T5 sequence (P04150 1-777): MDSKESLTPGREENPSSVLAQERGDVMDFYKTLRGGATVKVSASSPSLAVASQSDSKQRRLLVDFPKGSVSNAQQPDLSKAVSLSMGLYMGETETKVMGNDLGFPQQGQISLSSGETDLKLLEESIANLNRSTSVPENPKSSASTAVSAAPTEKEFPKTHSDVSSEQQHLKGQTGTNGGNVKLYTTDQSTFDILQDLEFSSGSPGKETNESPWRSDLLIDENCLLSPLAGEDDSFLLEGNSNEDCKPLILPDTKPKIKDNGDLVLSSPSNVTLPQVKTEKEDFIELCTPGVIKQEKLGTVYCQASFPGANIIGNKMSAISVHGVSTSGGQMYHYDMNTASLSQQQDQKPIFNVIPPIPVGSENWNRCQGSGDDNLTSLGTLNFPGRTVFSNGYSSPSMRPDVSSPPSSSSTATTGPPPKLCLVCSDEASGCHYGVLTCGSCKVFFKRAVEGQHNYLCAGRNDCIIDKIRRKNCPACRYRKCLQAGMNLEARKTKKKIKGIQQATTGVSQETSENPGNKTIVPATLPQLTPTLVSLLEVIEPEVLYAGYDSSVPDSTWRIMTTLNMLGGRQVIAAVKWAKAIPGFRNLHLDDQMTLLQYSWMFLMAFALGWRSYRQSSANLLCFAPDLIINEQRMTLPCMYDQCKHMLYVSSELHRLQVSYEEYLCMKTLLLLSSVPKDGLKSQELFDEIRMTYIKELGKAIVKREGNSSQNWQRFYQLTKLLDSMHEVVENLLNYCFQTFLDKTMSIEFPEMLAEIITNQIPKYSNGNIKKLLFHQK
Experimental: as §1

COX1 = COX1 (Homo sapiens, UniProt P23219); test: Profiling panel, enzymatic assay COX1; type: biochemical; details: 10 μM
COX1, sequence (P23219 24-599): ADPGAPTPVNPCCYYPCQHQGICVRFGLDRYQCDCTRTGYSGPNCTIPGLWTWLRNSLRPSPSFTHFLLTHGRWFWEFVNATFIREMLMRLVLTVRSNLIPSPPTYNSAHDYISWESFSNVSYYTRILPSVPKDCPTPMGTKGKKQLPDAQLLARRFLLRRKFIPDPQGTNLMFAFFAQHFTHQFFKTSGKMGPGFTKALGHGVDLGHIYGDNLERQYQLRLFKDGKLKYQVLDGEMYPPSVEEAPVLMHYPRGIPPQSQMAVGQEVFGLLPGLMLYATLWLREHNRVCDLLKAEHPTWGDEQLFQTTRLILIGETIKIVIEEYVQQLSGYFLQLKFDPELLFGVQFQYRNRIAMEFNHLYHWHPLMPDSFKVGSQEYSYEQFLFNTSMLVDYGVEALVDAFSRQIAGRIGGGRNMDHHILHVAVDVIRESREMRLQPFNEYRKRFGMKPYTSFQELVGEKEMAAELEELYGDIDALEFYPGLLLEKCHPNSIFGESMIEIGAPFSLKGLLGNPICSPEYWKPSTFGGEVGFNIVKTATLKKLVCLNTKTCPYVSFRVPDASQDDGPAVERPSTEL
Experimental: as §1

iNOS = iNOS (Homo sapiens, UniProt P35228); test: Profiling panel, enzymatic assay iNOS; type: biochemical; details: 10 μM
Experimental: as §1

DP = details: cited from earlier work

## CN(C1CCc2c(c3ccccc3n2CC(=O)O)C1)S(=O)(=O)c1ccc(F)cc1 (centres unmarked) [TM30089]
AT2
  % of control AT2: 98.1 ± 1.4%
ChemR23
  % of control ChemR23: 96.6 ± 1.6%
CXCR2
  % of control CXCR2: 104.6 ± 6.1%
CysLT1
  % of control CysLT1: 116.9 ± 10.5%
Glucocorticoid
  % of control Glucocorticoid: 98.9 ± 11.3%
COX1
  % of control COX1: 109.6 ± 3.6%
iNOS
  % of control iNOS: 102.3 ± 3.6%
DP
  preference for CRTH2 over DP: > 1000 fold
